The target of test [1] is T1, ABL1(Q252H)-nonphosphorylated (Homo sapiens, UniProt P00519, Q252H).
T1 construct: purchased Eurofins DiscoverX KINOMEscan (scanTK)
The test can be described thus: KINOMEscan ScanTK. It is filed as binding.

The next test has as its target T2, MERTK (Homo sapiens, UniProt Q12866).
T2 construct: purchased Eurofins DiscoverX KINOMEscan (scanTK)
T2 sequence (Q12866 21-999): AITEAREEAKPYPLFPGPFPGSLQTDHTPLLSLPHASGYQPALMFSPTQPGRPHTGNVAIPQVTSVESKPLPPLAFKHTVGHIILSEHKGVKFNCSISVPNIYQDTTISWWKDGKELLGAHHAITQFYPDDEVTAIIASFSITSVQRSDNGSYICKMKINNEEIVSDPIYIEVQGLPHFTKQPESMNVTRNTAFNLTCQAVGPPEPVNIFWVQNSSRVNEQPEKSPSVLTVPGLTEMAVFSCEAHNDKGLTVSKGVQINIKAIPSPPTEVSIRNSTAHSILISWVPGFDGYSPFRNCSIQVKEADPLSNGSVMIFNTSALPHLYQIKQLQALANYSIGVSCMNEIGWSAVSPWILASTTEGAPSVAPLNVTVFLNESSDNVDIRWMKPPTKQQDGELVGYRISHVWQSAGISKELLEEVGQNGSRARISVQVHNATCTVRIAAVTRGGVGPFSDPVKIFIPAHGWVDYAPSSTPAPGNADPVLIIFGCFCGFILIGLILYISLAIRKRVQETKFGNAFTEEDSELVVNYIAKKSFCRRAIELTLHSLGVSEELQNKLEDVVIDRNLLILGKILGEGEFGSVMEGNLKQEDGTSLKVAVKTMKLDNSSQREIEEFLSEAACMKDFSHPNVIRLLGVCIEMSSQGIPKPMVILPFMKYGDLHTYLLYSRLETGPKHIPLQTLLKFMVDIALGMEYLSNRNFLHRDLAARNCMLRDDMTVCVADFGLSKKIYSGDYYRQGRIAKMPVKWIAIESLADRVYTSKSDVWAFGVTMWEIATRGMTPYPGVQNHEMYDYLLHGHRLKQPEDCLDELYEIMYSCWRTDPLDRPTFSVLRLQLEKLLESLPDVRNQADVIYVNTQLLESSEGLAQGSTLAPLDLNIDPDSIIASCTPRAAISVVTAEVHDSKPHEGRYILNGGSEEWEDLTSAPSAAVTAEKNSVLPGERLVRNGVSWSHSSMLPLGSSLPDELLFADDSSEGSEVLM
Kind of test: KINOMEscan ScanTK. The format is binding.

The next test deals with T3, FGFR1 (Homo sapiens, UniProt P11362).
T3 construct: purchased Eurofins DiscoverX KINOMEscan (scanTK)
T3 sequence (P11362 22-822): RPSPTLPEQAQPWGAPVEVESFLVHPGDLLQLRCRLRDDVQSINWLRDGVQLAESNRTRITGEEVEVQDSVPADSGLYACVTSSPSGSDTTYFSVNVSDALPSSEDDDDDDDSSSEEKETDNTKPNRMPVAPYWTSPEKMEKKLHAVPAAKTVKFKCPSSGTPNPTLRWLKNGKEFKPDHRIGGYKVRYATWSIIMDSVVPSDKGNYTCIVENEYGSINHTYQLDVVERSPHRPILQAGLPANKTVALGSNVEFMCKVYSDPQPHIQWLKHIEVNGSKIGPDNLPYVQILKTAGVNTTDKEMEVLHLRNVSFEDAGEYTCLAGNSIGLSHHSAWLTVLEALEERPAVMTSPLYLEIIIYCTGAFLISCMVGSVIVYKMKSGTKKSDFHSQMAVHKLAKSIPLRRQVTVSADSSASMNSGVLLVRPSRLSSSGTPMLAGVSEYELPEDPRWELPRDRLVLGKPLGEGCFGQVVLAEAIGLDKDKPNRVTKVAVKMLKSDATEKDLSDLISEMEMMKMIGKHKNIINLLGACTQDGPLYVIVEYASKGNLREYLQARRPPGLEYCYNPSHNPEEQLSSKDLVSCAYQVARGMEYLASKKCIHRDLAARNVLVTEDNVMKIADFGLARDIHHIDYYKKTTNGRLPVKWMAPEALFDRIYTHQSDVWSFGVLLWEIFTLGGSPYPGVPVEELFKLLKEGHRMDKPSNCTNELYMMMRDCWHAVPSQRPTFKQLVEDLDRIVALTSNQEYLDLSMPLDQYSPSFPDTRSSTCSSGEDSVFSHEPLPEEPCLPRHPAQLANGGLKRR
The test can be described thus: KINOMEscan ScanTK. The format is binding.

The next test addresses T4, IGF1R (Homo sapiens, UniProt P08069).
T4 construct: purchased Eurofins DiscoverX KINOMEscan (scanTK)
The test can be described thus: KINOMEscan ScanTK. It is filed as binding.

In another test the target is T5, EPHB2 (Homo sapiens, UniProt P29323).
T5 construct: purchased Eurofins DiscoverX KINOMEscan (scanTK)
T5 sequence (P29323 19-1055): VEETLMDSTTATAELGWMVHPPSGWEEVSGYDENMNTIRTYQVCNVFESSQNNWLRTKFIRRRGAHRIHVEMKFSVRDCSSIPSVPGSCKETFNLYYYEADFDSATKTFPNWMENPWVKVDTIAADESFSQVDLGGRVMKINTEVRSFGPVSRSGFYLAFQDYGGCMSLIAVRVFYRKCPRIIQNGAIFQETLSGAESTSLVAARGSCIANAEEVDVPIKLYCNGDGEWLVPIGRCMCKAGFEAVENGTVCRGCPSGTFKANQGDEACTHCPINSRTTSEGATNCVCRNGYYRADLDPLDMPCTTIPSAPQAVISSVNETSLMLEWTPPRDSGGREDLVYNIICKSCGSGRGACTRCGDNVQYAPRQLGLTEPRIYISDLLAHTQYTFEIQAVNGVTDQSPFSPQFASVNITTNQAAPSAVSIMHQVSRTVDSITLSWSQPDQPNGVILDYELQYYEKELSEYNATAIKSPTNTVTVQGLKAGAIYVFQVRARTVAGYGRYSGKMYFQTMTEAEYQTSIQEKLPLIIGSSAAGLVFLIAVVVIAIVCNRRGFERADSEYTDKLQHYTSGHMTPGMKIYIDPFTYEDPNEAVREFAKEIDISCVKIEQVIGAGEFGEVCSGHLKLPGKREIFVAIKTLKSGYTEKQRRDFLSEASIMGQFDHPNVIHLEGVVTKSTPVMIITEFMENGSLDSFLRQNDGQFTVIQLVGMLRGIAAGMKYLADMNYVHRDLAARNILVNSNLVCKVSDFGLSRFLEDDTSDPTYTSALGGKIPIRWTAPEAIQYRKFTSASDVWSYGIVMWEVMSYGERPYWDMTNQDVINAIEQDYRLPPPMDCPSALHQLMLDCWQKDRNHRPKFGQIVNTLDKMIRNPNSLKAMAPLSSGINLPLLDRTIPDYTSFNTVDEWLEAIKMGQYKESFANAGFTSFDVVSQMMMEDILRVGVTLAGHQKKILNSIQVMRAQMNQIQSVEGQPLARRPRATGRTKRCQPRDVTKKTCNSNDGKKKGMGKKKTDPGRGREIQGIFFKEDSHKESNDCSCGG
Kind of test: KINOMEscan ScanTK. The format is binding.

Test [2] concerns the target T6, ABL1(T315I)-nonphosphorylated (Homo sapiens, UniProt P00519, T315I).
T6 construct: purchased Eurofins DiscoverX KINOMEscan (scanTK)
The test can be described thus: KINOMEscan ScanTK. The format is binding.

The target in a further test is wild-type BTK (Homo sapiens, UniProt Q06187). Kind of test: NanoBRET target engagement assay in HEK293 cells. (Bioluminescence resonance energy transfer reports proximity on the nanometre scale.)
Chain of wild-type BTK (Q06187 whole entry): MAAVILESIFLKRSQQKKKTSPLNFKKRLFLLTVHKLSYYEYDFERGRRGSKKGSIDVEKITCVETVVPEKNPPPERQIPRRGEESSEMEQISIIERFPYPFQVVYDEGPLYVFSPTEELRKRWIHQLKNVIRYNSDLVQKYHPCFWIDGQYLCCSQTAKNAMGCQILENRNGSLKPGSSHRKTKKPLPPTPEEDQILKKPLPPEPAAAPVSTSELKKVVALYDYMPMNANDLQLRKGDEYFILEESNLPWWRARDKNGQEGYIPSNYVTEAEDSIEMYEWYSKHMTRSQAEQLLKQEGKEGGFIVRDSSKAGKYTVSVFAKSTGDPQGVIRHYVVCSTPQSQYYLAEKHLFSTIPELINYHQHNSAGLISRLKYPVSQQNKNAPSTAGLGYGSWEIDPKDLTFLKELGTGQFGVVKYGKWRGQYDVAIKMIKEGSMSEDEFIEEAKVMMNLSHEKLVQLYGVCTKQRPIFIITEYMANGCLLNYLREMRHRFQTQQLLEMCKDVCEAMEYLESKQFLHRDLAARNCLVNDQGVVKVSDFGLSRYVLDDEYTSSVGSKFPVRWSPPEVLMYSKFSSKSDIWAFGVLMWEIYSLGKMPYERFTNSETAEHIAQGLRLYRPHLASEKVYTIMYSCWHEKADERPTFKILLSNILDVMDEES
Test [3] concerns the target T7, ABL1(T315I)-phosphorylated (Homo sapiens, UniProt P00519, T315I).
T7 construct: purchased Eurofins DiscoverX KINOMEscan (scanTK)
Kind of test: KINOMEscan ScanTK. It is filed as binding.

Where two headings read alike, the source gives them in different places.

T4 sequence (P08069 31-1367): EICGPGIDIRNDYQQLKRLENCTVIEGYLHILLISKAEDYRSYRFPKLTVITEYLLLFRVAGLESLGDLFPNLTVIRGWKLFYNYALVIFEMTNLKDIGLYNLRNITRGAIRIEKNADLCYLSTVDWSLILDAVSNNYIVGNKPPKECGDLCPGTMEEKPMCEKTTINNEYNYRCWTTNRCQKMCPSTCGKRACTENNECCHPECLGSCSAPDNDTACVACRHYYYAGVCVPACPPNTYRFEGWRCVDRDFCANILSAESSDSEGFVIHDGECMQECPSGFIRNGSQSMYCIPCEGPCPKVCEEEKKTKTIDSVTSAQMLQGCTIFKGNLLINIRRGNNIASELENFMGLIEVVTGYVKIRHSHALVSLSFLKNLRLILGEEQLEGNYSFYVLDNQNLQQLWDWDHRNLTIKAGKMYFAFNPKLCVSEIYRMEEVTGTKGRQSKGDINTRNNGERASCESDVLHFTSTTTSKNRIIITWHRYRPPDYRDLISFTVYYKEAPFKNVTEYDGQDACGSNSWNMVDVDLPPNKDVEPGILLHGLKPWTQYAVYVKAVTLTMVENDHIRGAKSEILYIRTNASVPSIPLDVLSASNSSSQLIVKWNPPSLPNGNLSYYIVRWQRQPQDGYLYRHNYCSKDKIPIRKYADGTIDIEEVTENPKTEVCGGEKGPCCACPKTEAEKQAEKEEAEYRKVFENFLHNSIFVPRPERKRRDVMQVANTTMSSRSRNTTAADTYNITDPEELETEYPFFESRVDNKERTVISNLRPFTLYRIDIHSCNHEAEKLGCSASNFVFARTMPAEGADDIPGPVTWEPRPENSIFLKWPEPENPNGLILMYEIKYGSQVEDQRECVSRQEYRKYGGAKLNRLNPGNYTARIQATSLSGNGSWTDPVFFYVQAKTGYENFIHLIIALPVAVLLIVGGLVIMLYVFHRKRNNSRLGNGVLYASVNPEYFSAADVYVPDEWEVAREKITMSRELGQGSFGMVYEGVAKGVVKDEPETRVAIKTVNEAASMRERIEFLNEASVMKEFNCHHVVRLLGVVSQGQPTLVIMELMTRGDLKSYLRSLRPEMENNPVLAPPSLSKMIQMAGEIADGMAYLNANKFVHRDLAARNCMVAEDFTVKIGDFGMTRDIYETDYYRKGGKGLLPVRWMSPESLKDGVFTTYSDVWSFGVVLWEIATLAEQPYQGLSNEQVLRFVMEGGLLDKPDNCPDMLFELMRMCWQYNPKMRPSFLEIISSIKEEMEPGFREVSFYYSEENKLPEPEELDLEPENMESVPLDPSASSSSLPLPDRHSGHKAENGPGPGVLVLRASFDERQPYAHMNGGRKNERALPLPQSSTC

As to `C=CC(=O)N1CCC[C@@H](n2nc(-c3ccc(Oc4ccccc4)cc3)c3c(N)ncnc32)C1` [Compound 1g, Ibrutinib, reference compound], the remaining binding at 1 µM was 13% in test [1] (@1000nM, read-out: %Control); 13% in test [1] (read-out: %Control @1000nM); 38% on MERTK (@1000nM, read-out: %Control); 38% on MERTK (read-out: %Control @1000nM); 33% on FGFR1 (@1000nM, read-out: %Control); 33% on FGFR1 (read-out: %Control @1000nM). The remaining binding at 1 µM on IGF1R (@1000nM, read-out: %Control) is 96%; on IGF1R (read-out: %Control @1000nM), 96%; at EPHB2 (@1000nM, read-out: %Control), 100%; at EPHB2 (read-out: %Control @1000nM) it was 100%; in test [2] (@1000nM, read-out: %Control), 93%; in test [2] (read-out: %Control @1000nM) it was 93%.
In turn, `Cc1cnc(S(C)(=O)=O)nc1N1CCCC(n2nc(-c3ccc(Oc4ccccc4)cc3)c3c(N)ncnc32)C1` (stereo not shown) [Compound 8a, 1-(1-(5-Methyl-2-(methylsulfonyl)pyrimidin-4-yl)piperidin-3-yl)-3-(4-phenoxyphenyl)-1H-pyrazolo[3,4-d]pyrimidin-4-amine] had a difference in %Control versus reference compound Ib at 1 µM in test [1] (@1000nM) of 25%. The remaining binding at 1 µM in test [1] (@1000nM, read-out: %Control) worked out at 38%; in test [1] (read-out: %Control @1000nM), 38%; at MERTK (@1000nM, read-out: %Control), 60%; at MERTK (read-out: %Control @1000nM) it was 60%; on FGFR1 (@1000nM, read-out: %Control) it was 77%; at FGFR1 (read-out: %Control @1000nM) it was 77%. The remaining binding at 1 µM at IGF1R (@1000nM, read-out: %Control) came to 100%; at IGF1R (read-out: %Control @1000nM), 100%; on EPHB2 (@1000nM, read-out: %Control), 84%; on EPHB2 (read-out: %Control @1000nM) it was 84%; in test [3] (@1000nM, read-out: %Control), 70%; in test [3] (read-out: %Control @1000nM) it was 70%. The remaining binding at 1 µM in test [2] (@1000nM, read-out: %Control) worked out at 82%; in test [2] (read-out: %Control @1000nM) it was 82%. The same compound yielded a difference in %Control from compound Ib at 1 µM on FGFR1 (@1000nM) of 44%. Also, the IC50 (usually the concentration at which inhibition is half-maximal) at wild-type BTK stood at 8 ± 9 nM. Moreover, the “NanoBRET IC50” value on wild-type BTK (HEK293 cells, 1 h treatment) is “low to subnanomolar”. This compound also displayed a % Control difference from reference compound Ib at 1 µM at IGF1R (@1000nM) of 4%. The %Control difference from compound Ib at 1 µM on EPHB2 (@1000nM) is -16%. Also, the difference in %Control versus compound Ib at 1 µM in test [3] (@1000nM) is -9%. In addition, the difference in % of control versus compound Ib at 1 µM in test [2] (@1000nM) was -11%.

The record behind these values is article PMC11345841, “Exploring 2-Sulfonylpyrimidine Warheads as Acrylamide Surrogates for Targeted Covalent Inhibition: A BTK Story” (Journal of Medicinal Chemistry, 2024).
